These molecules were tested against human active recombinant p38α-6His tagged (Homo sapiens, UniProt Q16539) (assay: P38 Alpha Enzyme Assay (AlphaScreen, biotinylated-ATF2 substrate)). Conditions: p38 alpha enzyme inhibition; means of replicate determinations; 4 h pre-incubation at 37° C.; SD of assay 0.2-0.3 log units.
Format: biochemical
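Also: 0.5 nM final p38α, reaction started with ATP and run 45 min at 37 °C, phospho-ATF2 read by antibody-based AlphaScreen, background wells quenched with EDTA before ATP.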

human active recombinant p38α-6His tagged, sequence (Q16539 whole entry): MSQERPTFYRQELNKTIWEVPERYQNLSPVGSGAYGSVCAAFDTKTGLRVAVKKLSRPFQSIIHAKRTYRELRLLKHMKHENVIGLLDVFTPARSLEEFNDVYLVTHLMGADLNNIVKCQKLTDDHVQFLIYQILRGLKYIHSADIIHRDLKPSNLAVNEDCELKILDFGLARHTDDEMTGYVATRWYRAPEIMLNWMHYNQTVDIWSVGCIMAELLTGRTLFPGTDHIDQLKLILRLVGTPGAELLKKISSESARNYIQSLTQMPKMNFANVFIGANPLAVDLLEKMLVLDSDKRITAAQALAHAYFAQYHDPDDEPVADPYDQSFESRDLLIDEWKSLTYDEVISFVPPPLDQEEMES

SMILES	pIC50
Cc1ccc(C(=O)NC2CC2)cc1-n1ccnc(NC[C@@H](O)c2ccccc2)c1=O [Example 56, N-Cyclopropyl-3-[3-[[(2S)-2-hydroxy-2-phenylethyl]amino]-2-oxo-1(2H)-pyrazinyl]-4-methyl-benzamide]	6.4
Cc1ccc(C(=O)NC2CC2)cc1-n1ccnc(NC[C@H](C)c2ccccc2)c1=O [Example 57, N-Cyclopropyl-4-methyl-3-[2-oxo-3-[[(2R)-2-phenylpropyl]amino]-1(2H)-pyrazinyl]-benzamide]	7.1
Cc1ccc(C(=O)NC2CC2)cc1-n1ccnc(NC[C@@H](C)c2ccccc2)c1=O [Example 58, N-Cyclopropyl-4-methyl-3-[2-oxo-3-[[(2S)-2-phenylpropyl]amino]-1(2H)-pyrazinyl]-benzamide]	7
Cc1ccc(C(=O)NC2CC2)cc1-n1ccnc(N2CCCC(c3ccc(OCCN4CCCC4)cc3)C2)c1=O (stereo not shown) [Example 59, N-Cyclopropyl-4-methyl-3-[2-oxo-3-[3-[4-[2-(1-pyrrolidinyl)ethoxy]phenyl]-1-piperidinyl]-1(2H)-pyrazinyl]-benzamide]	7.2
Cc1ccc(C(=O)NC2CC2)cc1-n1ccnc(N2CCCC(c3ccccc3)C2)c1=O (stereo not shown) [Example 60, N-Cyclopropyl-4-methyl-3-[2-oxo-3-(3-phenyl-1-piperidinyl)-1(2H)-pyrazinyl]-benzamide]	7.3
Cc1ccc(C(=O)NC2CC2)cc1-n1ccnc(NCC(c2ccccc2)N(C)C)c1=O (stereo not shown) [Example 61, N-Cyclopropyl-3-[3-[[2-(dimethylamino)-2-phenylethyl]amino]-2-oxo-1(2H)-pyrazinyl]-4-methyl-benzamide]	6.3
Cc1ccc(C(=O)NC2CC2)cc1-n1ccnc(NC(C)(C)Cc2ccc(F)cc2)c1=O [Example 62, N-Cyclopropyl-3-[3-[[2-(4-fluorophenyl)-1,1-dimethylethyl]amino]-2-oxo-1(2H)-pyrazinyl]-4-methyl-benzamide]	7
Cc1ccc(C(=O)NC2CC2)cc1-n1ccnc(NCC(c2ccccc2)N2CCCC2)c1=O (stereo not shown) [Example 63, N-Cyclopropyl-4-methyl-3-[2-oxo-3-[[2-phenyl-2-(1-pyrrolidinyl)ethyl]amino]-1(2H)-pyrazinyl]-benzamide]	6.3
Cc1ccc(C(=O)NC2CC2)cc1-n1ccnc(NC2Cc3ccccc3C2)c1=O [Example 64, N-Cyclopropyl-3-[3-[(2,3-dihydro-1H-inden-2-yl)amino]-2-oxo-1(2H)-pyrazinyl]-4-methyl-benzamide]	6.8
Cc1ccc(C(=O)NC2CC2)cc1-n1ccnc(NC(C)(C)Cc2ccccc2)c1=O [Example 65, N-Cyclopropyl-3-[3-[(1,1-dimethyl-2-phenylethyl)amino]-2-oxo-1(2H)-pyrazinyl]-4-methyl-benzamide]	7
Cc1ccc(C(=O)NC2CC2)cc1-n1ccnc(N(C)CCc2ccccc2)c1=O [Example 66, N-Cyclopropyl-4-methyl-3-[3-[methyl(2-phenylethyl)amino]-2-oxo-1(2H)-pyrazinyl]benzamide]	6.5
Cc1ccc(C(=O)NC2CC2)cc1-n1ccnc(N2CCOC(c3ccccc3)C2)c1=O (stereo not shown) [Example 67, N-Cyclopropyl-4-methyl-3-[2-oxo-3-(2-phenyl-4-morpholinyl)-1(2H)-pyrazinyl]-benzamide]	6.6
Cc1ccc(C(=O)NC2CC2)cc1-n1ccnc(NCc2ccccc2O)c1=O [Example 68, N-Cyclopropyl-3-[3-[[(2-hydroxyphenyl)methyl]amino]-2-oxo-1(2H)-pyrazinyl]-4-methyl-benzamide]	7.6
Cc1ccc(C(=O)NC2CC2)cc1-n1ccnc(NCc2cccc(C(=O)NC3CC3)c2)c1=O [Example 69, N-Cyclopropyl-3-[3-[[[3-[(cyclopropylamino)carbonyl]phenyl]methyl]amino]-2-oxo-1(2H)-pyrazinyl]-4-methyl-benzamide]	6.2
Cc1ccc(C(=O)NC2CC2)cc1-n1ccnc(NCCc2ccc(O)cc2)c1=O [Example 70, N-Cyclopropyl-3-[3-[[2-(4-hydroxyphenyl)ethyl]amino]-2-oxo-1(2H)-pyrazinyl]-4-methyl-benzamide]	6.8
Cc1ccc(C(=O)NC2CC2)cc1-n1ccnc(NCCc2cccc(O)c2)c1=O [Example 71, N-Cyclopropyl-3-[3-[[2-(3-hydroxyphenyl)ethyl]amino]-2-oxo-1(2H)-pyrazinyl]-4-methyl-benzamide]	6.8
Cc1ccccc1CCNc1nccn(-c2cc(C(=O)NC3CC3)ccc2C)c1=O [Example 72, N-Cyclopropyl-4-methyl-3-[3-[[2-(2-methylphenyl)ethyl]amino]-2-oxo-1(2H)-pyrazinyl]-benzamide]	7.2
Cc1cccc(CCNc2nccn(-c3cc(C(=O)NC4CC4)ccc3C)c2=O)c1 [Example 73, N-Cyclopropyl-4-methyl-3-[3-[[2-(3-methylphenyl)ethyl]amino]-2-oxo-1(2H)-pyrazinyl]-benzamide]	7.1
Cc1ccc(CCNc2nccn(-c3cc(C(=O)NC4CC4)ccc3C)c2=O)cc1 [Example 74, N-Cyclopropyl-4-methyl-3-[3-[[2-(4-methylphenyl)ethyl]amino]-2-oxo-1(2H)-pyrazinyl]-benzamide]	6.7

SMILES	pIC50
Cc1ccc(C(=O)NC2CC2)cc1-n1ccnc(N2CCCC2Cc2ccccc2F)c1=O (stereo not shown) [Example 75, N-Cyclopropyl-3-[3-[2-[(2-fluorophenyl)methyl]-1-pyrrolidinyl]-2-oxo-1(2H)-pyrazinyl]-4-methyl-benzamide]	7.1
Cc1ccc(C(=O)NC2CC2)cc1-n1ccnc(N2CCCCC2)c1=O [Example 76, N-Cyclopropyl-4-methyl-3-[2-oxo-3-(1-pipendinyl)-1(2H)-pyrazinyl]-benzamide]	6.8
Cc1ccc(C(=O)NC2CC2)cc1-n1ccnc(NC(CCN2CCOCC2)c2ccccc2)c1=O (stereo not shown) [Example 77, N-Cyclopropyl-4-methyl-3-[3-[[3-(4-morpholinyl)-1-phenylpropyl]amino]-2-oxo-1(2H)-pyrazinyl]-benzamide]	7.5
CCOc1ccccc1CNc1nccn(-c2cc(C(=O)NC3CC3)ccc2C)c1=O [Example 78, N-Cyclopropyl-3-[3-[[(2-ethoxyphenyl)methyl]amino]-2-oxo-1(2H)-pyrazinyl]-4-methyl-benzamide]	7.8
Cc1ccc(C(=O)NC2CC2)cc1-n1ccnc(NCc2ccccc2C(F)(F)F)c1=O [Example 79, N-Cyclopropyl-4-methyl-3-[2-oxo-3-[[[2-(trifluoromethyl)phenyl]methyl]amino]-1(2H)-pyrazinyl]-benzamide]	7.7
Cc1ccc(C(=O)NC2CC2)cc1-n1ccnc(N[C@H](CO)c2ccccc2)c1=O [Example 80, N-Cyclopropyl-3-[3-[[(1S)-2-hydroxy-1-phenylethyl]amino]-2-oxo-1(2H)-pyrazinyl]-4-methyl-benzamide]	7.9
Cc1ccc(C(=O)NC2CC2)cc1-n1ccnc(N[C@@H](CO)c2ccccc2)c1=O [Example 81, N-Cyclopropyl-3-[3-[[(1R)-2-hydroxy-1-phenylethyl]amino]-2-oxo-1(2H)-pyrazinyl]-4-methyl-benzamide]	6.3
Cc1ccc(C(=O)NC2CC2)cc1-n1ccnc(NC(CCO)c2ccccc2)c1=O (stereo not shown) [Example 83, N-Cyclopropyl-3-[3-[(3-hydroxy-1-phenylpropyl)amino]-2-oxo-1(2H)-pyrazinyl]-4-methyl-benzamide]	7.7
Cc1ccc(C(=O)NC2CC2)cc1-n1ccnc(N[C@H](C)c2cccc3ccccc23)c1=O [Example 84, N-Cyclopropyl-4-methyl-3-[3-[[(1R)-1-(1-naphthalenyl)ethyl]amino]-2-oxo-1(2H)-pyrazinyl]-benzamide]	8.6
Cc1ccc(C(=O)NC2CC2)cc1-n1ccnc(N[C@H](CC(=O)NC2CC2)c2ccccc2)c1=O [Example 89]	7.6
Cc1ccc(C(=O)NC2CC2)cc1-n1ccnc(NCC2CCOCC2)c1=O [Example 90, N-Cyclopropyl-4-methyl-3-[2-oxo-3-[[(tetrahydro-2H-pyran-4-yl)methyl]amino]-1(2H)-pyrazinyl]-benzamide]	6.4
Cc1ccc(C(=O)NC2CC2)cc1-n1ccnc(NCc2cccc3c2OCCO3)c1=O [Example 91, N-Cyclopropyl-3-[3-[[(2,3-dihydro-1,4-benzodioxin-5-yl)methyl]amino]-2-oxo-1(2H)-pyrazinyl]-4-methyl-benzamide]	7.9
Cc1ccc(C(=O)NC2CC2)cc1-n1ccnc(NCc2cccc(C)c2C)c1=O [Example 92, N-Cyclopropyl-3-[3-[[(2,3-dimethylphenyl)methyl]amino]-2-oxo-1(2H)-pyrazinyl]-4-methyl-benzamide]	7.6
Cc1ccc(C(=O)NC2CC2)cc1-n1ccnc(NCc2cccc(C(F)(F)F)c2)c1=O [Example 93, N-Cyclopropyl-4-methyl-3-[2-oxo-3-[[[3-(trifluoromethyl)phenyl]methyl]amino]-1(2H)-pyrazinyl]-benzamide]	6.9
Cc1cccc(C2CCCCN2c2nccn(-c3cc(C(=O)NC4CC4)ccc3C)c2=O)c1 (stereo not shown) [Example 94, N-Cyclopropyl-4-methyl-3-[3-[2-(3-methylphenyl)-1-pipendinyl]-2-oxo-1(2H)-pyrazinyl]-benzamide]	7.5
Cc1cc(C)cc(CNc2nccn(-c3cc(C(=O)NC4CC4)ccc3C)c2=O)c1 [Example 95, N-Cyclopropyl-3-[3-[[(3,5-dimethylphenyl)methyl]amino]-2-oxo-1(2H)-pyrazinyl]-4-methyl-benzamide]	7.7
Cc1cccc(C2CCCN2c2nccn(-c3cc(C(=O)NC4CC4)ccc3C)c2=O)c1 (stereo not shown) [Example 96, N-Cyclopropyl-4-methyl-3-[3-[2-(3-methylphenyl)-1-pyrrolidinyl]-2-oxo-1(2H)-pyrazinyl]-benzamide]	8.5
COc1ccccc1C1CCCN1c1nccn(-c2cc(C(=O)NC3CC3)ccc2C)c1=O (stereo not shown) [Example 97, N-Cyclopropyl-3-[3-[2-(2-methoxyphenyl)-1-pyrrolidinyl]-2-oxo-1(2H)-pyrazinyl]-4-methyl-benzamide]	8.7

Source: patent US20120214822A1 (ASTRAZENECA AB, priority 2007, published 2012)
